Results from ChEMBL document CHEMBL3400046, “Discovery and evaluation of a novel monocyclic series of CXCR2 antagonists” (Bioorg Med Chem Lett, 2015).

What was measured:
in vitro [1] = details: human, hepatocytes
[2] = Half life in iv dosed rat; type: ADME, organism-based; details: in vivo
in vivo = details: rat, iv
[3] = Fraction of the dose absorbed in iv dosed rat; type: ADME, organism-based; details: in vivo, read-out: Fabs
Rattus norvegicus = test: Dose normalized AUC in po dosed rat; type: ADME, organism-based; details: in vivo
[4] = Volume of distribution at steady state in iv dosed rat; type: ADME, organism-based; details: in vivo, read-out: Vdss
[5] = Bioavailability in iv dosed rat; type: ADME, organism-based; details: in vivo
physchem = details: octanol/water
[6] = Dissociation constant, pKa of the compound; type: physicochemical
in vitro [7] = details: human, Caco-2
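Throughout, for logD: distribution coefficient determined with the shake-flask method.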

SMILES | hepatocyte CLint (in vitro [1]) | logD (physchem) | pKa [6] | other results
C[C@H](CO)Nc1nc(SCc2cccc(F)c2F)nc2[nH]c(=O)sc12 | 15 µL/min/1e6 cells | – | – | half-life [2]: 1.1 h; clearance (in vivo): 6 mL/min/kg; Fa [3]: 24%; AUC (Rattus norvegicus): 2.1 µM·h; Vd [4]: 0.3 L/kg; bioavailability [5]: 22%
C[C@H](CO)Nc1cc(NS(=O)(=O)N2CCC2)nc(SCc2cccc(Cl)c2F)n1 | 2.4 µL/min/1e6 cells | 3.2 | – | –
C[C@H](CO)Nc1nc(SCc2cccc(F)c2F)nc2nc(N)sc12 | – | – | – | Fa [3]: 12%; AUC/dose (Rattus norvegicus): 0.7 µM·h; bioavailability [5]: 9%
C[C@H](CO)Nc1cc(NS(=O)(=O)N2CCC2)nc(SCc2cccc(F)c2F)n1 | 3.1 µL/min/1e6 cells | 2.6 | – | half-life [2]: 3.2 h; Papp A→B (in vitro [7]): 10.1 ×10⁻⁶ cm/s; clearance (in vivo): 8 mL/min/kg; Fa [3]: 50%; AUC/dose (Rattus norvegicus): 5.9 µM·h; Vd [4]: 1.4 L/kg; bioavailability [5]: 44%
C[C@H](CO)Nc1cc(NS(=O)(=O)N2CCOCC2)nc(SCc2cccc(F)c2F)n1 | 4.6 µL/min/1e6 cells | – | – | half-life [2]: 1 h; clearance (in vivo): 25 mL/min/kg; Fa [3]: 48%; AUC/dose (Rattus norvegicus): 1.6 µM·h; Vd [4]: 1.1 L/kg; bioavailability [5]: 31%
C[C@H](CO)Nc1cc(NS(=O)(=O)N2CCCC2)nc(SCc2cccc(F)c2F)n1 | 12 µL/min/1e6 cells | 3.4 | – | Papp A→B (in vitro [7]): 7.5 ×10⁻⁶ cm/s
C[C@H](CO)Nc1cc(NS(=O)(=O)c2cn(C)cn2)nc(SCc2cccc(Cl)c2F)n1 | – | 2 | – | Papp A→B (in vitro [7]): 1.4 ×10⁻⁶ cm/s
C[C@H](CO)Nc1cc(NS(=O)(=O)N2CCOCC2)nc(SCc2cccc(Cl)c2F)n1 | 8 µL/min/1e6 cells | 3.1 | – | Papp A→B (in vitro [7]): 5.4 ×10⁻⁶ cm/s
C[C@H](CO)Nc1cc(NS(=O)(=O)N2CCNCC2)nc(SCc2cccc(Cl)c2F)n1 | – | 1.5 | – | Papp A→B (in vitro [7]): 0.1 ×10⁻⁶ cm/s
C[C@H](CO)Nc1cc(NS(=O)(=O)N2CCCCC2)nc(SCc2cccc(F)c2F)n1 | 30 µL/min/1e6 cells | 3.9 | – | –

More lines, main results first:

hepatocyte CLint (in vitro [1]) | logD (physchem) | pKa [6] | SMILES | other results
– | -0.7 | 4.9 | C[C@H](CO)Nc1cc(C(=O)NS(C)(=O)=O)nc(SCc2ccccc2)n1 | –
– | 2.6 | 7.3 | C[C@H](CO)Nc1cc(NS(=O)(=O)N(C)C)nc(SCc2ccccc2)n1 | –
– | 2.2 | 5.8 | C[C@H](CO)Nc1cc(NS(=O)(=O)C(F)(F)F)nc(SCc2ccccc2)n1 | –
– | 1.9 | 6.9 | C[C@H](CO)Nc1cc(NS(C)(=O)=O)nc(SCc2ccccc2)n1 | –
– | 3.4 | – | C[C@H](CO)Nc1cc(NS(=O)(=O)N(C)C)nc(SCc2cccc(Cl)c2F)n1 | Papp A→B (in vitro [7]): 6.4 ×10⁻⁶ cm/s
– | 2.5 | 6.6 | C[C@H](CO)Nc1cc(NS(=O)(=O)c2ccccc2)nc(SCc2ccccc2)n1 | –
– | -0.7 | 5.5 | C[C@H](CO)Nc1cc(C(=O)O)nc(SCc2ccccc2)n1 | –
– | 2.6 | 6.1 | C[C@H](CO)Nc1cc(NS(=O)(=O)c2ccc(C#N)cc2)nc(SCc2ccccc2)n1 | –
– | 2.7 | – | C[C@H](CO)Nc1cc(NS(=O)(=O)Cc2ccccc2)nc(SCc2ccccc2)n1 | –
– | 3.5 | 6.5 | C[C@H](CO)Nc1cc(NS(=O)(=O)c2ccc(Cl)cc2)nc(SCc2ccccc2)n1 | –
– | 1.6 | – | C[C@H](CO)Nc1cc(NS(=O)(=O)c2cn(C)cn2)nc(SCc2cccc(F)c2F)n1 | –
